Among the data in PubChem BioAssay (NCI) are TGI and GI50 values, retold here.

What all share (assay): DTP human tumour cell line panel, 48 h
The subject of assay [1] is SF-268 CNS.
For assay [2], the system named is ACHN renal.
Assay [3] has as its system T-47D breast.
Assay [4] relates to RXF 393 renal.
For assay [5], the system named is LOX IMVI melanoma.
Assay [6] has as its system SNB-19 CNS.
The test system of assay [7] is PC-3 prostate.
The subject of assay [8] is A549 NSCLC.
For assay [9], the system named is HT29 colon.
In assay [10] the test system is OVCAR-8 ovarian.

The structures appear in SMILES notation.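 Five compound concentrations were applied to cells in 96-well plates for 48 hours; endpoints were derived by simple linear interpolation of the resulting dose-response curve. Abbreviation: GI50, concentration required for 50% inhibition of growth. TGI: total growth inhibition.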

`O=C1/C(=C/c2[nH]ncc2-c2ccc(Cl)cc2)C(=O)N(c2ccccc2)C1c1ccccc1` (configuration not stated): the TGI in assay [1] is 40.9 µM; in [2], 85.2 µM; in [3], 17.3 µM; in assay [4], 49.4 µM; in assay [5], 32.4 µM; in assay [6] it was above 100 µM. In addition, the values for the TGI in assay [7], in assay [8] and in assay [9] were above 100 µM, above 100 µM and 27.5 µM, respectively.
In the case of `OCCCSCCO`, the TGI in [1], in assay [2], in assay [3], in assay [10], in assay [5] and in [6] was above 100 µM throughout. Moreover, the TGI in assay [7], in assay [8] and in assay [9] was above 100 µM in each case.
For `O=C(Nc1ccc(-n2ccc3c(NC(=O)c4ccccc4)nccc32)cc1)Nc1cccc(C(F)(F)F)c1`, the GI50 in assay [1] is 10.5 µM; in [2], 5.72 µM; in assay [3] it was 11.1 µM; in assay [4], 2240 nM; in assay [10], 4.35 µM; in [5], 2380 nM. Further, the GI50 in assay [6] was 11.1 µM; in assay [7], 1.8 µM; in [8], 3.25 µM; in assay [9] it was 1850 nM. The TGI is 30.2 µM in assay [1]; 19.6 µM in assay [2]; 31 µM in assay [3]; 7.64 µM in assay [4]; 17.9 µM in assay [10]; 10.9 µM in assay [5]. In addition, the TGI in assay [6] was 26.8 µM; in assay [7] it was 8.56 µM; in [8] it was 10.9 µM; in [9] it was 4.93 µM.
Take `COC(=O)C1CC23C4=C(CCC41)CCC1CN4CC(C)C(CC(OC(C)=O)C12COC(C)=O)C43O` (configuration not stated): the TGI in [1], in assay [2], in assay [3], in [4], in assay [10] and in assay [5] was above 100 µM throughout. The TGI in assay [6], in assay [7], in assay [8] and in [9] was above 100 µM each time.
Take `CCOC(=O)c1c(-c2cccc(Cl)c2)c(C(=O)OC)c(C)c2sc(C=O)nc12`: the TGI in assay [1] worked out at 38.6 µM; in [2], 31.4 µM; in assay [3], 45.6 µM; in [4] it was 44.6 µM; in assay [10] it was 41.9 µM; in assay [5], 28.9 µM. Also, the TGI in [6] was above 100 µM; in assay [7], 37.5 µM; in [8], above 100 µM; in assay [9], 49.5 µM.
Turning to `Cc1n[n+]([O-])c(C)cc1[N+](=O)[O-]`, the TGI in [1] was above 100 µM; in assay [2] it was 30.2 µM; in [3], 35.3 µM; in [4], 66.3 µM; in [10], 31.6 µM; in [5], 57.9 µM. Also, the TGI is above 100 µM in assay [6], 65.2 µM in assay [7], 48.1 µM in assay [8] and 27 µM in [9].
Take `Cc1oc(N)c(S(=O)(=O)c2cc3ccccc3n(O)c2=N)c1C`: the TGI in assay [1], in assay [2], in assay [3], in assay [10], in assay [5] and in assay [6] was above 100 µM in each case. The TGI in assay [7], in [8] and in assay [9] was above 100 µM throughout.
As to `CC1(C(=O)O)C[C@](C)(C(=O)OCc2ccccc2)C[C@](C)(C(=O)OCc2ccccc2)C1` (some centres not stated), the TGI in [1] was above 100 µM; in assay [2] it was 57.5 µM; in assay [3], above 100 µM; in assay [4] it was 56.4 µM; in [10] it was above 100 µM; in assay [5] it was 92.4 µM. For the same compound, the TGI in assay [6], in assay [7], in assay [8] and in assay [9] was above 100 µM in each case.
Regarding `COc1cc(C2c3cc4c(cc3[C@@H](Nc3ccc(Oc5ccccc5)cc3)C3COC(=O)[C@H]23)OCO4)cc(OC)c1O` (some centres not stated), the TGI is above 100 µM in [1]; above 100 µM in assay [4]; above 100 µM in [10]; above 100 µM in [5]; above 100 µM in [6]; above 39.5 µM in [8]. In assay [9], this compound gave a TGI above 100 µM.
Regarding `CC1=CC(O)C(C(O)(C(F)(F)F)C(F)(F)F)C(C)(C)C1` (configuration not stated), the TGI in assay [1], in assay [2], in assay [3], in assay [4], in [10] and in assay [5] was above 10 µM in each case. The TGI in assay [6], in assay [7], in [8] and in assay [9] was above 10 µM each time.
For the compound `Cc1cc2ccc(OC(=O)c3ccc(N=C(N)N)cc3)cc2oc1=O`, the TGI was 73.8 µM in assay [1]; above 100 µM in assay [2]; 95 µM in assay [3]; above 100 µM in [4]; above 100 µM in assay [10]; above 100 µM in assay [5]. Also, the TGI was 54.8 µM in assay [6], 78.5 µM in assay [7], above 100 µM in assay [8] and 70.4 µM in assay [9].
In the case of `COc1ccc(-c2nn(-c3ccc(NC(=O)c4cc(Cl)cc(Cl)c4)cc3)cc2-c2ccncc2)cc1Cl`, the GI50 is above 100 µM in assay [1]; above 100 µM in assay [2]; above 100 µM in assay [3]; 362 nM in [4]; above 100 µM in [10]; 3200 nM in assay [5]. Besides, the GI50 is above 100 µM in assay [6], 5.38 µM in assay [7], above 100 µM in assay [8] and 2260 nM in [9]. Besides, the TGI is above 100 µM in assay [1]; above 100 µM in assay [2]; above 100 µM in assay [3]; 1.23 µM in [4]; above 100 µM in assay [10]; above 100 µM in assay [5]. The TGI in assay [6], in assay [7], in assay [8] and in assay [9] was above 100 µM each time.
On to `Nc1nnc(CCC(=O)Nc2cc(Cl)ccc2Cl)n1N`, for which the TGI in [1], in assay [2], in [4], in assay [10], in assay [5] and in assay [6] was above 100 µM in each case. Also, the TGI in assay [8] and in assay [9] was above 100 µM in each case.
For `O=C(CC(c1ccccc1)C1C(=O)NC(=S)NC1=O)c1ccc([N+](=O)[O-])cc1` (configuration not stated), the TGI in assay [1], in assay [2], in assay [3], in [10], in [5] and in assay [6] was above 100 µM in each case. The TGI in assay [7], in assay [8] and in assay [9] was above 100 µM in each case.
On to `C[N+]1(CCC(=O)c2ccccc2)CCC2CCC(C2)C1` (configuration not stated), for which the TGI in assay [1], in assay [2], in assay [3], in [4], in [10] and in assay [5] was above 100 µM in each case. For the same compound, the TGI in assay [6], in [7], in [8] and in assay [9] was above 100 µM each time.
As to `COC(=O)c1cc(NC(=O)c2cc(NC(=O)Cc3c[nH]c4ccccc34)cn2C)cn1C`, the TGI in [1], in [2], in assay [3], in [4], in [10] and in assay [5] was above 100 µM in each case. The TGI in assay [6] is 85.7 µM; in assay [7] it was 96.2 µM; in assay [8], above 100 µM; in assay [9], 55.8 µM.
For the compound `CCOCC(=O)N(C)c1cccc2c3c(n(C)c12)CCCCC3`, the TGI in assay [1], in assay [4], in [10], in [5], in assay [6] and in assay [8] was above 100 µM throughout. Also, the TGI in assay [9] was above 100 µM.
`CC1C(=O)c2cc3c(cc2CCN(C)Cc2c1ccc1c2OCO1)OCO3` (configuration not stated): the GI50 is above 75 µg/mL in assay [1]; above 75 µg/mL in assay [2]; above 75 µg/mL in assay [3]; 13.1 µg/mL in assay [4]; above 75 µg/mL in assay [10]; 18.6 µg/mL in assay [5]. In addition, the GI50 in assay [6] was above 75 µg/mL; in [7], 24 µg/mL; in assay [8] it was above 75 µg/mL; in [9], 19.6 µg/mL. Moreover, the TGI is above 75 µg/mL in assay [1]; above 75 µg/mL in assay [2]; above 75 µg/mL in assay [3]; 68.3 µg/mL in assay [4]; above 75 µg/mL in [10]; above 75 µg/mL in assay [5]. The TGI in assay [6], in assay [7], in [8] and in assay [9] was above 75 µg/mL throughout.
Turning to `Cc1cc(C)c2c(=O)n(CC(O)CN3CCN(CCOCCO)CC3)sc2n1` (configuration not stated), the TGI in assay [1] came out at 39.8 µM; in assay [2], 35 µM; in assay [3] it was 47.2 µM; in [4], 21 µM; in [10], 39.9 µM; in assay [5], 37.1 µM. The TGI was above 100 µM in [6], 40.7 µM in assay [7], above 100 µM in [8] and 39.6 µM in [9].
Turning to `O=S(=O)(O)c1ccc2c(N=Nc3ccc(N=Nc4ccccc4)cc3)c(O)c(S(=O)(=O)O)cc2c1`, the TGI in assay [1], in assay [2], in assay [3], in assay [4], in assay [10] and in [6] was above 100 µM in each case. For the same compound, the TGI in assay [7], in assay [8] and in assay [9] was above 100 µM in each case.
In the case of `CC1=C[C@@H](C)C[C@]2(C)CC[C@H](O2)[C@]23CC[C@](CO)(C[C@H](O2)[C@@H]2O[C@@](C)(CC2=O)[C@@H](O)[C@H]2CC[C@@]4(CCC[C@@H](O4)[C@H](C)C(=O)O[C@H]4C[C@H]([C@]5(O)OCC[C@H](C)[C@@H]5O)O[C@H]4C=C1)O2)O3`, the TGI in [1] was 0.0252 µM; in assay [2] it was above 10 µM; in assay [3], above 10 µM; in assay [4] it was 0.0801 µM; in assay [10], above 4.19 µM; in [5] it was 0.155 µM. Further, the TGI in [7], in [8] and in assay [9] was above 10 µM throughout.
As for `COc1ccc(-n2c3c(c4cc(O)ccc42)Cc2ccccc2C3=O)cc1`, the TGI is above 100 µM in assay [1]; 9.38 µM in assay [4]; above 100 µM in assay [10]; above 100 µM in assay [5]; above 100 µM in assay [6]; 15.3 µM in assay [7]. Further, the TGI in [8] and in assay [9] was above 100 µM throughout.
As to `CC(=O)Nc1ccc(C(=O)NN2C(=O)C(Cl)C2c2cccc([N+](=O)[O-])c2)cc1` (configuration not stated), the TGI in assay [1], in [2], in assay [10], in assay [6], in assay [8] and in assay [9] was above 100 µM in each case.
For the compound `Cn1c2[n+](c3nc(N)[nH]c(=O)c31)C1OC(C2)C(O)C1O` (configuration not stated), the TGI in assay [1], in [2], in assay [4], in assay [10], in [5] and in [6] was above 100 µM each time. Besides, the TGI in assay [8] and in assay [9] was above 100 µM in each case.
For `N=c1ccc2nc(N)nn(O)c-2c1`, the TGI in [1], in assay [2], in assay [3], in assay [10], in assay [5] and in [6] was above 100 µM in each case. Further, the TGI in assay [7], in assay [8] and in assay [9] was above 100 µM throughout.
